Source: US20250241923A1, “A DUAL SELECTIVE PI3K DELTA AND GAMMA INHIBITORS AND/OR A SALT-INDUCIBLE KINASE 3 INHIBITOR FOR TREATING SOLID TUMORS” (Incozen Therapeutics Pvt. Ltd, priority 2022, published 2025)

Legend:
[1] = test system: SK-OV-3 ovarian cancer cell lines; assay: Anti-proliferative activity with PARP inhibitors, SK-OV-3; assay type: cell-based; settings: Homo sapiens, single agent talazoparib (3 μM, FIG. 6B), read-out: growth inhibition
[2] = test system: OVCAR-3 ovarian cancer cell lines; assay: Anti-proliferative activity with PARP inhibitors, OVCAR-3; assay type: cell-based; settings: Homo sapiens, single agent talazoparib (0.1 μM, FIG. 6A), read-out: growth inhibition
[3] = test system: MCF-7 breast cancer cell lines; assay: cells; settings: Homo sapiens, MCF7, 72 h, read-out: growth inhibition
SIK3 = SIK3 (Homo sapiens, UniProt Q9Y2K2); assay: SIK3 inhibition assay (enzymatic radiometric); assay type: biochemical; settings: 10 μM ATP
SIK3, sequence (Q9Y2K2 whole entry): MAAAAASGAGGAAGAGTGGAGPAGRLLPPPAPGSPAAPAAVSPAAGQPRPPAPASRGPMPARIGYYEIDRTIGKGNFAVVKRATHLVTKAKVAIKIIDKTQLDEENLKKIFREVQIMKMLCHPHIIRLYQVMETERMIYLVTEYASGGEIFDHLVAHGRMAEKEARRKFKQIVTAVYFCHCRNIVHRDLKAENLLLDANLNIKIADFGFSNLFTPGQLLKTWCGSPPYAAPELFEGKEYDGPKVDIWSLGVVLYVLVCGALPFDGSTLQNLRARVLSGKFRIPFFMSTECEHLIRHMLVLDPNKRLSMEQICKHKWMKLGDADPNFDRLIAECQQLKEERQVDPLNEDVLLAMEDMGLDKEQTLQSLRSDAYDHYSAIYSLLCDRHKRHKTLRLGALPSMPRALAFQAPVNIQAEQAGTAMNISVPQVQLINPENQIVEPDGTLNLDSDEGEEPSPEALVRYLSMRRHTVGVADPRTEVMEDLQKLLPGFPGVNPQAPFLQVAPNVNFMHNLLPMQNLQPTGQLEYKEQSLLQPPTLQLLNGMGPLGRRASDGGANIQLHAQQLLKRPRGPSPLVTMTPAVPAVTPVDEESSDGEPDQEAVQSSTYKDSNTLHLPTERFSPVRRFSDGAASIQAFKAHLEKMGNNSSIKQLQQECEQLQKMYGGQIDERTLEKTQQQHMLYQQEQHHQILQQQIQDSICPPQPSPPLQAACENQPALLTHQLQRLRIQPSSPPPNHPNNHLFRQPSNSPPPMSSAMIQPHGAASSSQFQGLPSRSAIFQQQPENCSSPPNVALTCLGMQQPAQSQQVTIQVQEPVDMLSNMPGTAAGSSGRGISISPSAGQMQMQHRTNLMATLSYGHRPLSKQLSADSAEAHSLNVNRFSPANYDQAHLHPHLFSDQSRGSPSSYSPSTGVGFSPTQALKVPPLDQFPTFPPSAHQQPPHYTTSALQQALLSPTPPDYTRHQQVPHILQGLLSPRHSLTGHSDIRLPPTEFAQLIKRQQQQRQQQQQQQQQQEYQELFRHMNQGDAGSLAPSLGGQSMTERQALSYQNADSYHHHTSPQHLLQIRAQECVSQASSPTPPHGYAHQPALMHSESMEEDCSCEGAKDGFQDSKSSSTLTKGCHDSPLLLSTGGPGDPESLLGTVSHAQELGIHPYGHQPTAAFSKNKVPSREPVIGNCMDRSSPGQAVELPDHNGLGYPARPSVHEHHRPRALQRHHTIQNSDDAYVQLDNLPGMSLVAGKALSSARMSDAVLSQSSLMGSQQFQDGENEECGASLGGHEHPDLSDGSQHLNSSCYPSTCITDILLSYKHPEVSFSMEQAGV

[4] = test system: SK-OV-3 ovarian cancer cell line; assay: Anti-proliferative effect of taxol and Compound (M) (Example 10), SK-OV-3; assay type: cell-based; settings: Compound (M) 3 μM added to taxol (6 nM, FIG. 7)
[5] = Metabolic stability in liver microsomes, human; assay type: in vitro ADME
Text: (§1) In in vitro studies using liver microsomes, the metabolic stability of tenalisib followed the rank order of rat>human>dog>monkey>mouse (Table 3).

[6] = Metabolic stability in liver microsomes, rat; assay type: in vitro ADME
Text: as §1

[7] = Metabolic stability in liver microsomes, dog; assay type: in vitro ADME
Text: as §1

## Cn1ncnc1[C@H]1c2n[nH]c(=O)c3cc(F)cc(c23)N[C@@H]1c1ccc(F)cc1 [talazoparib]
[1]
  inhibition at 3 µM: 50%
[2]
  inhibition at 0.1 µM: 40.2%

## COc1cccc2c1C(=O)c1c(O)c3c(c(O)c1C2=O)C[C@@](O)(C(=O)CO)C[C@@H]3O[C@H]1C[C@H](N)[C@H](O)[C@H](C)O1 [Doxorubicin]
[3]
  inhibition at 0.05 µM: 42.8%

## CC[C@H](Nc1ncnc2[nH]c(O)nc12)c1oc2ccccc2c(=O)c1-c1cccc(F)c1 [Compound M, (S)-3-(3-fluorophenyl)-2-(1-((8-hydroxy-9H-purin-6-yl)amino)propyl)-4H-chromen-4-one]
SIK3
  IC50: 237 nM
  selectivity over the SIK1 and SIK2 isoforms: Selective over
[4]
  potentiation of the activity of taxol: potentiated
[5]
  % Metabolic Stability: 58.5%
[6]
  % Metabolic Stability: 58.0%
[7]
  % Metabolic Stability: 67.6%
